# From patent US6358885B1, “Substituted phenylheterocyclic herbicides” (Mississippi State University, priority 1992, dated 2002)
# Legend:
# [1] = test system: barley; assay: Test B preemergence/postemergence greenhouse plant response rating 0 to 10; type: in vivo, Hordeum vulgare; conditions: 0 to 10 scale
# Procedure, shortened: (§1)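 Postemergence treatment of plants two to eighteen cm tall ran alongside preemergence treatment of planted seed, each using compound in a non-phytotoxic solvent.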
# [2] = test system: bedstraw; assay: as above; type: in vivo, Galium aparine; conditions: 0 to 10 scale
# Procedure, shortened: as §1
# [3] = test system: cheatgrass; assay: as above; type: in vivo, Bromus secalinus; conditions: 0 to 10 scale
# Procedure, shortened: as §1
# [4] = test system: cocklebur; assay: as above; type: in vivo, Xanthium pensylvanicum; conditions: 0 to 10 scale
# Procedure, shortened: as §1
# [5] = test system: giant foxtail; assay: as above; type: in vivo, Setaria faberii; conditions: 0 to 10 scale
# Procedure, shortened: as §1
# [6] = test system: lambsquarters; assay: as above; type: in vivo, Chenopodium album; conditions: 0 to 10 scale
# Procedure, shortened: as §1
# [7] = test system: morningglory; assay: as above; type: in vivo, Ipomoea hederacea; conditions: 0 to 10 scale
# Procedure, shortened: as §1
# [8] = test system: soybean; assay: as above; type: in vivo, Glycine max; conditions: 0 to 10 scale
# Procedure, shortened: as §1
# [9] = test system: velvetleaf; assay: as above; type: in vivo, Abutilon theophrasti; conditions: 0 to 10 scale
# Procedure, shortened: as §1
# [10] = test system: barley; assay: Test C preemergence/postemergence greenhouse plant response rating 0 to 100; type: in vivo, Hordeum vulgare; conditions: POSTEMERGENCE; for Plant response rating Barley Igri: 0 to 100 scale
# From the text: (§2) The compounds evaluated in this test were formulated in a non-phytoxic solvent and applied to the soil surface before plant seedlings emerged (preemergence application), to water that covered the soil surface (flood application), and to plants that were in the one-to-four leaf stage (postemergence application). A sandy loam soil was used for the preemergence and postemergence tests, while a silt loam soil was used in the flood test. Water depth was approximately 2.5 cm for the flood test and was maintained at this level for the duration of the test. Plant species in the preemergence and postemergence tests consisted of barley (Hordeum vulgare), bedstraw (Galium aparine), blackgrass (Alopecurus myosuroides), chickweed (Stellaria media), corn (Zea mays), cotton (Gossypium hirsutum), crabgrass (Digitaria sanguinalis), downy brome (Bromus tectorum), giant foxtail (Setaria faberii), lambsquarters (Chenopodium album), morningglory (Ipomoea hederacea), pigweed ([…]), rape (Brassica napus), ryegrass (Lolium multiflorum), sorghum (Sorghum bicolor), soybean (Glycine max), speedwell (Veronica persica), sugar beet (Beta vulgaris), velvetleaf (Abutilon theophrasti), wheat (Triticum aestivum), wild buckwheat (Polygonum convolvulus), and wild oat (Avena fatua). All plant species were planted one day before application of the compound for the preemergence portion-of this test. Plantings of these species were adjusted to produce plants of appropriate size for the post-emergence portion of the test. […] All plant species were grown using normal greenhouse practices. Visual evaluations of injury expressed on treated plants, when compared to untreated controls, were recorded approximately fourteen to twenty one days after application of the test compound. […] A dash (-) response means no test result.
# [11] = test system: blackgrass; assay: as above; type: in vivo, Alopecurus myosuroides; conditions: POSTEMERGENCE; for Plant response rating, Blackgrass: 0 to 100 scale
# From the text: as §2
# [12] = test system: chickweed; assay: as above; type: in vivo, Stellaria media; conditions: POSTEMERGENCE; for Plant response rating, Chickweed: 0 to 100 scale
# From the text: as §2
# [13] = test system: giant foxtail; assay: as above; type: in vivo, Setaria faberii; conditions: POSTEMERGENCE; for Plant response rating, Giant foxtail: 0 to 100 scale
# From the text: as §2
# [14] = test system: morningglory; assay: as above; type: in vivo, Ipomoea hederacea; conditions: POSTEMERGENCE; for Plant response rating, Morningglory: 0 to 100 scale
# From the text: as §2
# [15] = test system: rape; assay: as above; type: in vivo, Brassica napus; conditions: POSTEMERGENCE; for Plant response rating, Rape: 0 to 100 scale
# From the text: as §2
# [16] = test system: sorghum; assay: as above; type: in vivo, Sorghum bicolor; conditions: POSTEMERGENCE; for Plant response rating, Sorghum: 0 to 100 scale
# From the text: as §2
# [17] = test system: soybean; assay: as above; type: in vivo, Glycine max; conditions: POSTEMERGENCE; for Plant response rating, Soybean: 0 to 100 scale
# From the text: as §2
# [18] = test system: rice; assay: Test C flood test plant response rating 0 to 100; type: in vivo, Oryza sativa; conditions: for Plant response rating Rice Japonica: flood test species listed under POSTEMERGENCE, 0 to 100 scale
# From the text: as §2
structure (smiles),measurement,setting,value
C#CC(C)N1C(=O)COc2cc(F)c(-c3nn4c(c3Cl)CCCC4)cc21 (stereo not shown) [Compound 50],"Plant response rating, Barley","[1]; POSTEMERGENCE, Rate 10 g/ha",3
same,"Plant response rating, Barley","[1]; POSTEMERGENCE, Rate 50 g/ha",4
same,"Plant response rating, Barley","[1]; PREEMERGENCE, Rate 10 g/ha",0
same,"Plant response rating, Barley","[1]; PREEMERGENCE, Rate 50 g/ha",0
same,"Plant response rating, Bedstraw","[2]; POSTEMERGENCE, Rate 10 g/ha",10
same,"Plant response rating, Bedstraw","[2]; POSTEMERGENCE, Rate 50 g/ha",10
same,"Plant response rating, Bedstraw","[2]; PREEMERGENCE, Rate 10 g/ha",3
same,"Plant response rating, Bedstraw","[2]; PREEMERGENCE, Rate 50 g/ha",10
same,"Plant response rating, Cheatgrass","[3]; POSTEMERGENCE, Rate 10 g/ha",5
same,"Plant response rating, Cheatgrass","[3]; POSTEMERGENCE, Rate 50 g/ha",6
same,"Plant response rating, Cheatgrass","[3]; PREEMERGENCE, Rate 10 g/ha",2
same,"Plant response rating, Cheatgrass","[3]; PREEMERGENCE, Rate 50 g/ha",3
same,"Plant response rating, Cocklebur","[4]; POSTEMERGENCE, Rate 10 g/ha",9
same,"Plant response rating, Cocklebur","[4]; POSTEMERGENCE, Rate 50 g/ha",10
same,"Plant response rating, Cocklebur","[4]; PREEMERGENCE, Rate 10 g/ha",0
same,"Plant response rating, Cocklebur","[4]; PREEMERGENCE, Rate 50 g/ha",0
same,"Plant response rating, Giant foxtail","[5]; POSTEMERGENCE, Rate 10 g/ha",4
same,"Plant response rating, Giant foxtail","[5]; POSTEMERGENCE, Rate 50 g/ha",4
same,"Plant response rating, Giant foxtail","[5]; PREEMERGENCE, Rate 10 g/ha",0
same,"Plant response rating, Giant foxtail","[5]; PREEMERGENCE, Rate 50 g/ha",3
same,"Plant response rating, Lambsquarter","[6]; POSTEMERGENCE, Rate 10 g/ha",9
same,"Plant response rating, Lambsquarter","[6]; POSTEMERGENCE, Rate 50 g/ha",10
same,"Plant response rating, Lambsquarter","[6]; PREEMERGENCE, Rate 50 g/ha",10
same,"Plant response rating, Morningglory","[7]; POSTEMERGENCE, Rate 10 g/ha",10
same,"Plant response rating, Morningglory","[7]; POSTEMERGENCE, Rate 50 g/ha",10
same,"Plant response rating, Morningglory","[7]; PREEMERGENCE, Rate 50 g/ha",2
same,"Plant response rating, Soybean","[8]; POSTEMERGENCE, Rate 10 g/ha",6
same,"Plant response rating, Soybean","[8]; POSTEMERGENCE, Rate 50 g/ha",9
same,"Plant response rating, Soybean","[8]; PREEMERGENCE, Rate 50 g/ha",3
same,"Plant response rating, Velvetleaf","[9]; POSTEMERGENCE, Rate 10 g/ha",9
same,"Plant response rating, Velvetleaf","[9]; POSTEMERGENCE, Rate 50 g/ha",10
same,"Plant response rating, Velvetleaf","[9]; PREEMERGENCE, Rate 50 g/ha",0
same,Plant response rating Barley Igri,[10]; 62 g/ha,40
same,Plant response rating Barley Igri,[10]; 250 g/ha,50
same,"Plant response rating (0 to 100), Barley Igri",[10]; Rate 1 g/ha,0
same,"Plant response rating (0 to 100), Barley Igri",[10]; Rate 4 g/ha,20
same,"Plant response rating (0 to 100), Barley Igri",[10]; Rate 16 g/ha,30
same,"Plant response rating, Blackgrass",[11]; 62 g/ha,60
same,"Plant response rating, Blackgrass",[11]; 250 g/ha,60
same,"Plant response rating (0 to 100), Blackgrass",[11]; Rate 1 g/ha,20
same,"Plant response rating (0 to 100), Blackgrass",[11]; Rate 4 g/ha,30
same,"Plant response rating (0 to 100), Blackgrass",[11]; Rate 16 g/ha,50
same,"Plant response rating, Chickweed",[12]; 62 g/ha,100
same,"Plant response rating, Chickweed",[12]; 250 g/ha,100
same,"Plant response rating (0 to 100), Chickweed",[12]; Rate 1 g/ha,20
same,"Plant response rating (0 to 100), Chickweed",[12]; Rate 4 g/ha,30
same,"Plant response rating (0 to 100), Chickweed",[12]; Rate 16 g/ha,80
same,"Plant response rating, Giant foxtail",[13]; 62 g/ha,50
same,"Plant response rating, Giant foxtail",[13]; 250 g/ha,50
same,"Plant response rating (0 to 100), Giant foxtail",[13]; Rate 1 g/ha,20
same,"Plant response rating (0 to 100), Giant foxtail",[13]; Rate 4 g/ha,30
same,"Plant response rating (0 to 100), Giant foxtail",[13]; Rate 16 g/ha,50
same,"Plant response rating, Morningglory",[14]; 62 g/ha,100
same,"Plant response rating, Morningglory",[14]; 250 g/ha,100
same,"Plant response rating (0 to 100), Morningglory",[14]; Rate 1 g/ha,50
same,"Plant response rating (0 to 100), Morningglory",[14]; Rate 4 g/ha,70
same,"Plant response rating (0 to 100), Morningglory",[14]; Rate 16 g/ha,100
same,"Plant response rating, Rape",[15]; 62 g/ha,100
same,"Plant response rating, Rape",[15]; 250 g/ha,100
same,"Plant response rating (0 to 100), Rape",[15]; Rate 1 g/ha,0
same,"Plant response rating (0 to 100), Rape",[15]; Rate 4 g/ha,0
same,"Plant response rating (0 to 100), Rape",[15]; Rate 16 g/ha,50
same,"Plant response rating, Sorghum",[16]; 62 g/ha,50
same,"Plant response rating, Sorghum",[16]; 250 g/ha,50
same,"Plant response rating (0 to 100), Sorghum",[16]; Rate 1 g/ha,30
same,"Plant response rating (0 to 100), Sorghum",[16]; Rate 4 g/ha,50
same,"Plant response rating (0 to 100), Sorghum",[16]; Rate 16 g/ha,50
same,"Plant response rating, Soybean",[17]; 62 g/ha,90
same,"Plant response rating, Soybean",[17]; 250 g/ha,90
same,"Plant response rating (0 to 100), Soybean",[17]; Rate 1 g/ha,40
same,"Plant response rating (0 to 100), Soybean",[17]; Rate 4 g/ha,60
same,"Plant response rating (0 to 100), Soybean",[17]; Rate 16 g/ha,70
same,"Plant response rating (0 to 100), Rice Japonica","[18]; POSTEMERGENCE section, flood test, Rate 4 g/ha",25
same,"Plant response rating (0 to 100), Rice Japonica","[18]; Rate 16 g/ha, under POSTEMERGENCE head (flood test species)",60
same,Plant response rating Rice Japonica,[18]; 62 g/ha,65
same,Plant response rating Rice Japonica,[18]; 250 g/ha,90
